In brackets after ≈: the same amount, converted by molar mass.
Legend:
[1] = Lipophilicity by HPLC (logkw extrapolation, OECD guideline); assay type: physicochemical; conditions: Phenomenex Synergi 4 µm Polar-RP column, methanol:water, calibration with seven standards
Description: HPLC experiments were performed using a chromatograph equipped with an Elite LaChrom L-2130 gradient pump, L-2455 DAD detector, L-2300 column oven, and L-2200 autosampler (Hitachi-Merck, Darmstadt, Germany). The tested samples were applied into the Phenomenex Synergi 4 µm Polar-RP chromatographic column (Phenomenex, Torrance, CA, USA) (150 mm length, 4.6 mm i.d.). Mobile phases were degassed using a built-in membrane degasser.
Chromatographic analysis: 5 µL of each sample (0.1% methanolic solutions) was applied into the chromatographic column and chromatograms were developed at a flow rate of 1.0 mL min^−1 in the isocratic mode using various concentrations of methanol in the binary polar mobile phase: methanol:water (40:60, 45:55, 50:50, 55:45, 60:40, 65:35, and 70:30 (v/v)) Chromatograms were detected at 254 nm. All experiments were repeated in triplicate, and the final results were their arithmetic mean. Dead time was measured for uracil (Calbiochem—Merck, Darmstadt, Germany). All the experiments were performed at ambient temperature.
The chromatographic lipophilicity parameter (logkw) for 5–16 was obtained by the extrapolation of the retention parameter logk to pure water, according to the equation: logk = logkw − S × φ(1) where logkw is the value of the retention factor of a substance in pure water, S is the slope of the regression curve, and φ is the concentration (v/v) of methanol in the mobile phase.
Subsequently, logPHPLC parameters for 5–16 were calculated according to OECD guidelines, based on the equation obtained for seven standards with known lipohilicity parameters (logPo/w): logPo/w = 1.0239(± 0.03)·logkw − 0.1541(± 0.08); n = 7; r = 0.9976; se = 0.08; F = 1047.8(2)

[2] = Cytotoxicity against L929 cells, MTT cell viability assay (ISO 10993-5:2009(E)); assay type: cell-based; conditions: mouse, L929 mouse fibroblast cells; for viability at 24 h, 5 µg/mL / viability at 24 h, 25 µg/mL / viability at 24 h, 50 µg/mL / viability at 24 h, 125 µg/mL / viability at 24 h, 250 µg/mL / viability at 24 h, 500 µg/mL / viability at 24 h, 1000 µg/mL: read-out: viability of L929 cells (% of viable cells); for CC50 at 24 h: 50% cell proliferation inhibition, L929 cells
Source text: Since T. gondii is an obligate intracellular parasite that requires invasion of mammalian host cells to proliferate, compounds that inhibit parasite growth might be toxic to host cells as well. Therefore, as an initial indicator for host cell toxicity, we firstly evaluated compounds 5–16 for their ability to inhibit the growth of mouse fibroblast (L929) cells line according to the international standards: ISO 10993-5:2009(E).
To calculate the reduction of viability compared to the untreated blank the equation was used: viability (%) = 100% × sample OD570 (the mean value of the measured optical density of the treated cells)/blank OD570 (the mean value of the measured optical density of the untreated cells). CC50—represents the concentration of tested compounds that was required for a 50% cell proliferation inhibition in vitro. The effect of the tested compounds on the cell lines was measured using MTT assay according to the international standard: ISO 10993-5:2009(E). CC50 values were determined based on the plotted curves using GraphPad Prism program (version 8.0.1).
Cell culture: the L929 mouse fibroblast (ATTC® CCL-1™) was routinely cultured in IMDM (Iscove’s Modified Dulbecco Medium, Biowest, Nuaille, France), supplemented with 10% HIFBS, 100 U/mL penicillin and 100 μg/mL streptomycin. Cells were trypsinized twice a week and seeded at a density of 1 × 10^6 per T25 cell culture flask and incubated for 24–48 h in a 37 °C and 10% CO2 to achieve a confluent monolayer.
Cell viability assay: Assays were performed according to international standards: ISO 10993-5:2009(E), Biological evaluation of medical devices, Part 5: Tests for in vitro cytotoxicity. Cell viability were evaluated using the tetrazolium salt [3-(4,5-dimethylthiazol-2-yl)-2,5-diphenyltetrazolium bromide] (Sigma) and mouse fibroblasts L929 cells. For this assay we used only the culture medium, RPMI 1640, without phenol red (Biowest) supplemented with 10% HIFBS, 2 mM L-glutamine (Sigma), 100 U/mL penicillin, 100 μg/mL streptomycin. Shortly after, a 1 × 10^4/well of L929 cells were placed into 96-well plates and incubated in 37 °C and 10% CO2. Afterwards, an old culture medium was replaced by 100 μL of compounds and drugs dilutions in culture medium and the cells were treated for 24 h. Moreover, cells were treated with a 4.0–0.03% concentration of DMSO and 1M NaOH as a compound and drugs solvent (data not shown). Then, 50 μL of 1 mg/mL of MTT solution in RPMI 1640 without phenol red was added to each well and incubated 2h (37 °C, 10% CO2). Next, cell culture medium was aspirated cautiously and 150 μL of DMSO was added to each well, the plates were gently mixed. Then 25 μL 0.1M glycine buffer (pH = 10.5) (Sigma) was added. The optical density at 570 nm on the ELISA reader (Multiskan EX, Labsystems, Vienna, VA, USA), was read. The results were expressed as a percentage of viability compared to untreated cells. All experiments were performed in triplicate. For comparison reasons, two compounds known from our previous studies (6 and 9) were included in the bioassay performed for compounds 5, 7, 8, 9–16.

[3] = system: Toxoplasma gondii RH strain tachyzoites (ATCC PRA 310); assay: Influence on T. gondii proliferation in Hs27 cells, [3H]-uracil incorporation assay; assay type: cell-based; conditions: for IC50: Toxoplasma gondii, HS27, 50% inhibition of T. gondii RH proliferation in vitro, Hs27 host cells, [3H]-uracil incorporation; for SR (selectivity ratio): ratio of CC50 (L929) to IC50 (T. gondii)

Row | melting point | chromatographic logP [1] | SMILES | viability at 24 h, 5 µg/mL [2] | viability at 24 h, 25 µg/mL [2] | viability at 24 h, 50 µg/mL [2] | viability at 24 h, 125 µg/mL [2] | viability at 24 h, 250 µg/mL [2] | viability at 24 h, 500 µg/mL [2] | viability at 24 h, 1000 µg/mL [2] | CC50 at 24 h [2] | IC50 [3] | SR (selectivity ratio) [3]
1 | 225 to 227 °C | 3.95 | Cc1nc[nH]c1C(=O)NNC(=S)Nc1ccc(I)cc1 [Compound 16, 4-(4-Iodophenyl)-1-(4-methylimidazol-5-oyl)thiosemicarbazide] | 96.7% | 84.4% | 66.2% | 68.1% | 49.9% | 16.3% | 13.5% | 195 µg/mL (≈ 486 µM) | 22 µg/mL (≈ 54.9 µM) | 8.86
2 | 217 to 219 °C | 3.17 | Cc1nc[nH]c1C(=O)NNC(=S)Nc1ccccc1Cl [Compound 8, 4-(2-Chlorophenyl)-1-(4-methylimidazol-5-oyl)thiosemicarbazide] | 89.9% | 86.3% | 78.5% | 69.4% | 64.8% | 57.1% | 39.5% | 630 µg/mL (≈ 2030 µM) | 35.6 µg/mL (≈ 115 µM) | 17.69
3 | 210 to 212 °C | 3.98 | Cc1nc[nH]c1C(=O)NNC(=S)Nc1cccc(I)c1 [Compound 15, 4-(3-Iodophenyl)-1-(4-methylimidazol-5-oyl)thiosemicarbazide] | 96.7% | 87.3% | 70.8% | 66.2% | 54% | 8.53% | 8.49% | 197 µg/mL (≈ 492 µM) | 10.3 µg/mL (≈ 25.7 µM) | 19.16

Reference: article PMC6514996, “Discovery of Potent and Selective Halogen-Substituted Imidazole-Thiosemicarbazides for Inhibition of Toxoplasma gondii Growth In Vitro via Structure-Based Design” (Molecules, 2019)
